Assay results taken from patent US12285392B2, “Method for modulating metabolism” (Brightseed, Inc., priority 2018, dated 2025).

Legend:
[1] = Hepatic microsome stability assay, mouse; type: in vitro ADME; conditions: mouse microsomes
Description: Hepatic Microsome Assay. Hepatic microsomes stability assays were performed in accordance with known methods (Peddibhotla, et al. (2013) ACS Med. Chem. Lett. 4:846-851). Briefly, 3 μL of 25 μM compound solution in acetonitrile were incubated with 123 μL of mouse, human or rat liver microsomes (Xenotech, Kansas City, Kans.). […] The microsomal concentrations used were 1.0 mg/mL. Compounds were incubated in microsomes for 0, 5, 15, 30 and 60 minutes. The reactions were stopped by the addition of ice cold ACN and the reaction mixtures were centrifuged at 10,000 g for 10 minutes before the supernatant was removed for analysis. A 10 μL portion of the resulting extract was injected on a Thermo HPLC system equipped with PAL CTC plate sampler (96-well plate), Dionex Ultimate 3000 binary pump (flow rate at 0.600 mL/min), Dionex Ultimate 3000 thermostatted column compartment (temperature at 40° C.), Thermo Endura Mass Spectrometer (ESI source), using a Thermo Scientific Accucore C18 (2.6 μM, 2.1×50 mm) column. A gradient was run starting at 95% H2O (0.1% formic acid) and 5% ACN (0.1% formic acid) during the first 0.5 min, then under gradient condition of 5-100% ACN (0.1% formic acid) from minute 0.5 to 3.5, finishing at 95% H2O (0.1% formic acid) and 5% ACN (0.1% formic acid) over 0.5 min, with another 1 min at 95:5 to re-equilibrate.

HNF4α mRNA = HNF4α mRNA levels by quantitative PCR; type: cell-based; conditions: FIG. 3
Description: Expression of Insulin and HNF4α. RNA was purified using a RNEASY® chromatographic separation and isolation kits (Qiagen), and converted to cDNA using the gScript™ cDNA SuperMix (Quanta Biosciences). Q-PCR was conducted with cDNA corresponding to 2 μg of RNA using an Opticon Real-Time System (MJ Research) and QPCR SuperMix (BioPioneer). See All mRNA values were normalized to 18S rRNA values and are expressed as fold changes over vehicle-treated control.

HepG2 cells = assay: Lipid clearance in HepG2 cells (steatosis assay, Oil Red O); type: cell-based; conditions: HepG2 liver cells, 20 μM
Description: Lipid Clearance in HepG2 and T6PNE Cells (Steatosis Assay). The steatosis assay was carried out as described (Kiselyuk, et al. (2012) Chem. Biol. 19(7):806-818) with the exception of the drug concentration, which was 20 μM for N-trans-caffeoyltyramine with 0.25 mM palmitate in HepG2 cell lines, and 10 μM of either N-trans-caffeoyltyramine, N-trans-caffeoyltyramine, or pcoumaroyltyramine, with 0.25 mM palmitate in T6PNE cell lines. Steatosis was assessed using the Oil Red 0 Method for Fats kits (Poly Scientific; Warrington, PA), per manufacturer's guidelines. Briefly, frozen tissue slides or fixed cells were incubated in neat propylene glycol for 2 minutes and Oil Red 0 solution for 15 hours for slides or 1 hour for fixed cells, differentiated in 85% propylene glycol solution for 1 minute, washed twice with distilled water and stained in Hematoxylin of 10 seconds. Slides were mounted with glycerin jelly mounting medium.

## O=C(/C=C/c1ccc(O)c(O)c1)NCCc1ccc(O)cc1 [N-trans-caffeoyltyramine]
[1]; 1 μM
  % Remaining: 0.4%
[1]; 10 μM
  % Remaining: 0.3%
HNF4α mRNA
  HNF4α gene expression: upregulated
HepG2 cells
  Clearing of fats (Oil Red O staining): capable of clearing harmful fats from the liver
HepG2 cells; 0.25 mM palmitate
  Accumulation of fats: inhibited accumulation of fats
